This note sets out measurements from patent US4008323A, “Method of reducing cholesterol using certain aromatic keto acids” (Pierre Fabre S.A., priority 1974, dated 1977).

The subject of data set [1] is writhings induced by phenylbenzoquinone. Put plainly: Writhing test, phenylbenzoquinone (analgetic). In kind it is in vivo, mice. To be noted: t + 35 to t + 40 min. On the procedure: The analgetic properties of certain compounds were shown in mice by the "writhing test" method, that is to say with reference to the writhings induced by phenylbenzoquinone. The administration of the product is effected orally at time t; it is followed by the intraperitoneal injection of 0.2% phenylbenzoquinone at t + 30 min. The determination of the writhings is effected from t + 35 min. to t + 40 min. One lot of animals receiving only the vehicle (5% Tween 80 in 0.9% NaCl) serves as control.

A short description of data set [2]: Solubility properties. It is filed as physicochemical.
In data set [3] the test system is carrageenin edema. As to the kind of experiment: Carrageenin edema test in rats (antiinflammatory). It is filed as in vivo. To be noted: for % var. / action (variation of paw volume increase vs controls) / change in vivo at 75 mg/kg: 75 mg/kg oral; for change in vivo at 75 mg/kg / change in vivo at 200 mg/kg / change in vivo at 300 mg/kg: Rattus norvegicus; for change in vivo at 200 mg/kg: 200 mg/kg oral; for change in vivo at 300 mg/kg: 300 mg/kg oral. The method, then: The antiinflammatory properties were shown by the carrageenin edema test in rats, the products having been administered orally 1 hour before the intrapodal injection of 0.05 ml of a 2% suspension of carrageenin; the volume of the rat's paw was measured by plethysmoscopy 3, 4 and 6 hours afterwards.
The experiment concerned for each lot […]; one lot of animals receiving only the vehicle (2 ml/100 g of Tween + water) which served for the administration of the products, constituted the control lot. The following table sets forth the results obtained: […]

Data set [4] can be described thus: Acute toxicity in mice, oral LD50 (method of Miller & Tainter). The settings on record: mouse, in vivo, mortality determined 48 hours after administration. The method, then: The chemical compounds previously described were submitted to toxicity tests. It was determined in mice by oral administration and was calculated in accordance with the method of MILLER & TAINTER. It is generally low and greater than 1000 mg/kg.

In data set [5] the test system is total blood cholesterol. As to the kind of experiment: Total blood cholesterol in rats on a normal diet (hypocholesterolemizing). In kind it is in vivo. To be noted: 300 mg/kg oral, 4 consecutive days; 5th day, fasted 16 hours. On the procedure: One lot of rats served as control.
The sampling was effected on the 5th day after 16 hours fasting, by cardiac puncture and the total blood cholesterol determination was effected by the Liebermann-Burchardt colorimetric method.

[6] abbreviates: 3 hrs, read-out: % increase in volume of the paw, mean (m).
Where [7] appears, read: 4 hrs, read-out: % increase in volume of the paw, mean (m).
[8] abbreviates: 6 hrs, read-out: % increase in volume of the paw, mean (m).
[9] abbreviates: read-out: % mean variation of the volume of the paw at 3, 4 and 6 hrs.
The mark [10] stands for this setting: + 3 hrs, read-out: % increase in volume of the paw, mean (m).
[11] abbreviates: + 3 hrs, read-out: Action (variation of paw volume increase vs controls).
Setting [12] is: + 4 hrs, read-out: % increase in volume of the paw, mean (m).
[13] abbreviates: + 4 hrs, read-out: Action (variation of paw volume increase vs controls).
[14] abbreviates: + 6 hrs, read-out: % increase in volume of the paw, mean (m).
Where [15] appears, read: + 6 hrs, read-out: Action (variation of paw volume increase vs controls).

Where two headings read alike, the source gives them in different places.

Take `C=C(CC(=O)c1ccc(-c2ccccc2)cc1)C(=O)O` [F 1377, 2-methylene 4-oxo 4-(paraphenylphenyl) butyric acid]: in data set [1] (300 mg/kg oral), the “% Decrease (of writhings)” value is listed as 68,6%. In addition, in data set [1] (300 mg/kg oral), the “Mean No. of Writhings” value is listed as 8,00. Also, the “Solubility in N-methyl pyrrolidone” value in data set [2] stood at 15%. The “Solubility in dimethyl sulfoxide” value in data set [2] (dimethyl sulfoxide) is given as 10%. Besides, the Solubility in ether result in data set [2] (in words) is reported as “insoluble”. For the same compound, the “Solubility in propylene glycol (in words)” value in data set [2] (propylene glycol, in words) was “insoluble”. Further, in data set [2] (sodium salt, water, in words), the “Solubility in water in the form of sodium salt (in words)” value is “insoluble”. Besides, in data set [2] (water, in words), the Solubility in water entry is “insoluble”. Moreover, the figures for the “% var. / action (variation of paw volume increase vs controls)” value in data set [3] (3 hrs), in data set [3] (4 hrs) and in data set [3] (6 hrs) were -37%, -37% and -18%, respectively. Moreover, the change in vivo at 75 mg/kg in data set [3] (setting [6]) is 28.8%; in data set [3] (setting [7]), 30.5%; in data set [3] (setting [8]), 37.2%; in data set [3] (setting [9]) it was -30%. The change in vivo at 200 mg/kg in data set [3] (setting [10]) is 27.4%; in data set [3] (setting [11]), -46%; in data set [3] (setting [12]), 28%; in data set [3] (setting [13]), -43%; in data set [3] (setting [14]) it was 28.4%; in data set [3] (setting [15]) it was -32%. The change in vivo at 200 mg/kg in data set [3] (setting [9]) is -40%. The compound also yielded an LD50 at 48 h in data set [4] above 2000 mg/kg.

For `C=C(CC(=O)c1ccc(F)cc1)C(=O)O` [F 1376, 2-methylene 4-oxo 4-fluorophenyl butyric acid], the “Solubility in ethyl alcohol” value in data set [2] (ethyl alcohol / ethanol / alcohol) is recorded as 20%. The “Solubility in propylene glycol” value in data set [2] (propylene glycol) is 10%. For the same compound, the Solubility in water entry in data set [2] (water, in words) is reported as “insoluble”. For the same compound, the change in vivo at 300 mg/kg in data set [3] (setting [10]) was 50.8%; in data set [3] (setting [11]), -17%; in data set [3] (setting [12]), 51.5%; in data set [3] (setting [13]), -15%; in data set [3] (setting [14]) it was 54.8%; in data set [3] (setting [15]), -4%. In addition, in data set [3] (setting [9]), the change in vivo at 300 mg/kg is -12%. In data set [5], the “Total blood cholesterol, M” value is listed as 0,66. In data set [4], this compound returned an LD50 at 48 h of 1400 mg/kg.

As for `CC(=CC(=O)c1ccccc1)C(=O)Nc1cccc(C(F)(F)F)c1` [F 1442, 2-methyl 4-oxo 4-phenyl N(m-trifluoromethylphenyl) 2-butenamide], in data set [2], the “Solubility in N-methyl pyrrolidone” value amounted to 40%. Also, the “Solubility in alcohol of 95° GL” value in data set [2] (alcohol / ethanol of 95° GL) worked out at 30%. In addition, the “Solubility in NN-dimethyl acetamide” value in data set [2] was 40%. In addition, the Solubility in water result in data set [2] (water, in words) was “insoluble”. Moreover, the results for the “% var. / action (variation of paw volume increase vs controls)” value in data set [3] (3 hrs), in data set [3] (4 hrs) and in data set [3] (6 hrs) were -16%, -14% and -11%, respectively. For the same compound, the change in vivo at 75 mg/kg in data set [3] (setting [6]) was 50%; in data set [3] (setting [7]), 51%; in data set [3] (setting [8]), 49%; in data set [3] (setting [9]) it was -13%. Further, the LD50 at 48 h in data set [4] is above 1000 mg/kg.

Turning to `C=C(CC(=O)c1ccc(-c2ccc(Cl)cc2)cc1)C(=O)O` [F 1449, 2-methylene 4-oxo 4-(4' p-chlorophenylphenyl) butyric acid], the “% Decrease (of writhings)” value in data set [1] (200 mg/kg oral) is recorded as 17%. For the same compound, in data set [1] (200 mg/kg oral), the “Mean No. of Writhings” value was 27,4. The “Solubility in N-methyl pyrrolidone” value in data set [2] is recorded as 30%. For the same compound, the “Solubility in absolute alcohol” value in data set [2] (absolute alcohol) was found to be 1%. For the same compound, the “Solubility in NN-dimethyl acetamide” value in data set [2] was 30%. Also, the Solubility in water entry in data set [2] (water, in words) is “insoluble”. Also, the “% var. / action (variation of paw volume increase vs controls)” value is -29% in data set [3] (3 hrs), -24% in data set [3] (4 hrs) and -20% in data set [3] (6 hrs). In addition, the change in vivo at 75 mg/kg in data set [3] (setting [6]) was 42%; in data set [3] (setting [7]), 45%; in data set [3] (setting [8]), 44.5%; in data set [3] (setting [9]) it was -24%.

With `CC(=CC(=O)c1ccc(-c2ccccc2Cl)cc1)C(=O)O` [F 1439, 2-methyl 4-oxo 4-(4'-O-chlorophenylphenyl) 2-butenoic acid], in data set [2], the “Solubility in N-methyl pyrrolidone” value amounted to 25%. Also, the “Solubility in chloroform (in words)” value in data set [2] (chloroform, in words) is given as “Soluble”. The “Solubility in NN-dimethyl acetamide” value in data set [2] is 20%. The Solubility in ether entry in data set [2] (in words) was “Soluble”. In addition, in data set [2] (water, in words), the Solubility in water entry is “insoluble”. The “% var. / action (variation of paw volume increase vs controls)” value in data set [3] (3 hrs) was -36%; in data set [3] (4 hrs) it was -33%; in data set [3] (6 hrs), -28%. Further, the change in vivo at 75 mg/kg in data set [3] (setting [6]) is 38%; in data set [3] (setting [7]) it was 40%; in data set [3] (setting [8]), 40%; in data set [3] (setting [9]) it was -32%. Also, the “Total blood cholesterol, M” value in data set [5] is recorded as 0,67. In data set [4], the LD50 at 48 h amounted to 2370 mg/kg.
